Consider eight compounds from paper PMC7749390, “Neuroprotective activity of Ulmus pumila L. in Alzheimer's disease in rats; role of neurotrophic factors” (Heliyon, 2020).

In brackets after ≈: the same amount, converted by molar mass. Read-outs that look alike come from different tables or passages of the source.

A short description of assay [1]: Superoxide anion scavenging assay.
Assay [2] has as its target T1, Electric-eel AChE (Electrophorus electricus, UniProt O42275).
T1 construct: purchased Sigma
As to the kind of experiment: biochemical. The following applies: for inhibition at 6.25 µM: read-out: % Inhibition 6.25μM; for inhibition at 12.5 µM: read-out: % Inhibition 12.5μM; for inhibition at 25 µM: read-out: % Inhibition 25μM; for inhibition at 50 µM: read-out: % Inhibition 50μM. As to the method: The reaction mixture contained 150 μL of (100 mM) sodium phosphate buffer (pH 8.0), 10 μL of 5,5-Dithiobis-(2-nitrobenzoic acid) (DTNB, Sigma), 10 μL of test-extract solution and 20 μL of acetyl cholinesterase solution (Electric-eel AChE- Sigma) were mixed and incubated for 15 min (37 °C) followed by the addition of 10ml of acetylthiocholine (Sigma) to initiate the reaction. Hydrolysis of acetylthiocholine was monitored by the formation of yellow 5-thio-2- nitrobenzoate anion measured by UV- Vis Shimadzu spectrophotometer-USA at a wavelength of 412 nm (15 min).
Statistical analysis: reactions were carried out in triplicates and the data were expressed as mean ± SEM. The inhibitory concentration (IC50) of the total extract and each compound, was graphically evaluated by a non-linear regression method using Graph Pad Prism (Ver. 5.0) software.

Assay [3] can be described thus: DPPH radical scavenging assay.
Setting [4] is: table, mean ± SEM, n = 3, read-out: IC50.

T1 sequence (O42275 24-633): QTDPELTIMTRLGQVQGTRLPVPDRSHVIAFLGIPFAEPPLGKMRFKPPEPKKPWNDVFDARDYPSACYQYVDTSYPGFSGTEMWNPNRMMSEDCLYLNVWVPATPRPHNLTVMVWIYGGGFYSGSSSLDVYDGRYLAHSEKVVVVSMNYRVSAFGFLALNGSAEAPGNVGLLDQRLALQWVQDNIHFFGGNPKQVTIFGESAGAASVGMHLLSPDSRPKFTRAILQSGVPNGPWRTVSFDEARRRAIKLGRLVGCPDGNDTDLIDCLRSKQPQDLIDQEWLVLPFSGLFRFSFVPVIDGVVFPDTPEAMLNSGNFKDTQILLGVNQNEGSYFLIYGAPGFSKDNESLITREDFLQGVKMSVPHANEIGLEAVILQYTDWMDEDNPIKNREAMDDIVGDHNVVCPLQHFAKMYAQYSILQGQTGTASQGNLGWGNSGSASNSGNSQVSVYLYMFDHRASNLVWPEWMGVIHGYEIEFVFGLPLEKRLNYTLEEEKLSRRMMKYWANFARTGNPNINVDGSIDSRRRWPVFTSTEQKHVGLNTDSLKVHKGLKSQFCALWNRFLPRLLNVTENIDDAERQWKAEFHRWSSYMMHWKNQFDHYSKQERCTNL

Take `O=c1c(O)c(-c2ccc(O)c(O)c2)oc2cc(O)cc(O)c12` [quercetin]: the “IC50, superoxide anion radical inhibitory activity” value in assay [1] was determined as 45.3 ± 1.6 µg/mL (≈ 150 µM).

As to `CN(CCCCCCN(C)C(=O)Oc1ccc[n+](C)c1)C(=O)Oc1ccc[n+](C)c1` [distigmine bromide, reference compound], the IC50 in assay [2] amounted to 26.83 ± 0.02 µM.

For the compound `CC1OC(OCC2OC(Oc3c(-c4ccc(O)cc4)oc4cc(O)cc(O)c4c3=O)C(O)C(O)C2O)C(O)C(O)C1O` (stereo not shown) [Compound 8, Kaempferol 3-o-robinobioside], the inhibition at 6.25 µM in assay [2] (6.25μM, mean ± SEM, n = 3) came to 1.5 ± 0.8%. For the same compound, the inhibition at 12.5 µM in assay [2] (12.5μM, mean ± SEM, n = 3) stood at 4.4 ± 0.9%. For the same compound, the inhibition at 25 µM in assay [2] (25μM, mean ± SEM, n = 3) came to 19.9 ± 1.8%. Also, the inhibition at 50 µM in assay [2] (50μM, mean ± SEM, n = 3) is 59.3 ± 2.9%. The IC50 in assay [2] (setting [4]) is 43.13 ± 0.13 µM.

`Oc1cc(O)c2c(c1)OC(c1ccc(O)c(O)c1)C(O)C2` (single isomer, unassigned; (+)) [Compound 1, (+)-catechin]: the inhibition at 6.25 µM in assay [2] (6.25μM, mean ± SEM, n = 3) is 4.6 ± 1%. In addition, the inhibition at 12.5 µM in assay [2] (12.5μM, mean ± SEM, n = 3) amounted to 16.2 ± 2.4%. For the same compound, the inhibition at 25 µM in assay [2] (25μM, mean ± SEM, n = 3) came to 32.5 ± 2.5%. Also, the inhibition at 50 µM in assay [2] (50μM, mean ± SEM, n = 3) was found to be 70.3 ± 1.2%. Also, the IC50 in assay [2] (setting [4]) is 33.61 ± 0.0295 µM.

For `O=c1c(O[C@@H]2O[C@H](CO)[C@@H](O)[C@H](O)[C@H]2O)c(-c2ccc(O)cc2)oc2cc(O)cc(O)c12` [Compound 3, kaempferol 3-o-β-D-glucoside], in assay [2], 29.03 ± 0.0155 µM corresponded to half-maximal inhibition (IC50), the inhibition at 6.25 µM amounted to 3.7 ± 0.6%, the inhibition at 12.5 µM was determined as 14.6 ± 1.2% and the inhibition at 25 µM turned out to be 39.4 ± 0.8%. Further, the inhibition at 50 µM in assay [2] is 79.3 ± 0.8%.

Take `O=C1O[C@H]([C@@H](O)CO)C(O)=C1O` [ascorbic acid]: the “IC50, free radical scavenging activity (DPPH assay)” value in assay [3] was found to be 5.6 µg/mL (≈ 31.8 µM).

`O=c1c(O[C@@H]2O[C@H](CO)[C@@H](O)[C@H](O)[C@H]2O)c(-c2ccc(O)c(O)c2)oc2cc(O)cc(O)c12` [Compound 5, quercetin-3-O-β-D-gulucopyranoside]: in assay [2], the IC50 is 31.72 ± 0.017 µM, the inhibition at 6.25 µM amounted to 3.9 ± 1%, the inhibition at 12.5 µM amounted to 14.4 ± 0.9% and the inhibition at 25 µM amounted to 36.3 ± 1.6%. Moreover, in assay [2], the inhibition at 50 µM came out at 72.8 ± 2.6%.

In the case of `Oc1cc(O)c2c(c1)O[C@H](c1ccc(O)c(O)c1)[C@H](O)C2` [Compound 2, (-)-epicatechin], the inhibition at 6.25 µM in assay [2] (6.25μM, mean ± SEM, n = 3) was found to be 4.7 ± 0.7%. Further, in assay [2] (12.5μM, mean ± SEM, n = 3), the inhibition at 12.5 µM is 19.6 ± 2.6%. Besides, in assay [2] (25μM, mean ± SEM, n = 3), the inhibition at 25 µM was determined as 33.7 ± 1.2%. Also, the inhibition at 50 µM in assay [2] (50μM, mean ± SEM, n = 3) amounted to 73.6 ± 1.8%. Besides, the IC50 in assay [2] (setting [4]) came out at 31.62 ± 0.04 µM.

As a reminder, the IC50 is the concentration needed to halve the response being measured. The term inhibition denotes the drop in the measured response relative to a control, in per cent.
